# Where two headings read alike, the source gives them in different places.
# Legend:
# PGE2 [1] = test: Fibroblast PGE2 assay, PMA-induced; format: cell-based; conditions: human skin fibroblasts, N=4
# Method: Intracellular adhesion molecules (ICAM) and PEG2 production by human skin fibroblasts can be induced by the inflammatory stimulus PMA (phorbal myristate acetate). PMA represents an external stressor which induces oxidative stress and inflammatory responses in cells. This model is used to model inflammation in vivo.
# Primary human foreskin fibroblasts at passage 2 (P2) were seeded into 96-well plates at 10000 cells/well and maintained for 24 hours in an atmosphere of 5% carbon dioxide in Dulbeccos Modified Eagles Medium (DMEM) supplemented with 10% foetal calf serum. […] Phorbal myristate acetate (PMA) (Sigma) was added to the media and the cells incubated for a further 24 hours. […] The fibroblasts/media were then analysed as described below immediately or snap frozen in liquid nitrogen and stored at -70°C for future analysis. The cells were then counted and data from the dot-blot analysis subsequently standardised to cell number.
# Prostaglandin E2 (PGE2) assay: Volumes of 50 µl culture medium were taken for PGE2 assay after gently shaking the culture plate. PGE2 levels in the medium were determined with a Biotrak PGE2 immunoassay kit (Amersham, UK). The assay is based on the competition between unlabelled PGE2 in the sample and a fixed quantity of horseradish peroxidase labelled PGE2 for a limited amount of fixed PGE2 specific antibody. Concentrations of unlabelled sample PGE2 are determined according to a standard curve which was obtained at the same time.
# [2] = Cell viability assay by neutral red dye absorption in the pigmentation assay; format: cell-based; conditions: mouse, b16-f1 cells, n=4, read-out: Neutral Red Cell Viability % Control
# Method: (§1) • * Cell maintenance B16-F1 mouse melanoma cells (American Type Culture Collection, Maryland, USA) were maintained in 75 cm^2 culture flasks in RPMI 1640 medium (ICN-Flow, cat. no. 12-60-54) supplemented with L-glutamine (4 mM) and 10% foetal bovine serum (FBS) at 37°C in a water saturated, 5% CO2 in air atmosphere. Cells were passaged twice weekly. • * Pigmentation Assay Subconfluent B16 cells were seeded in 96 well microtiter plates at a density of 5000 cells/well and cultured overnight in DMEM (Life Technologies, NY) containing 10% foetal bovine serum and 1% penicillin/streptomycin without phenol red at 37°C under 5% CO2. After 24 hours, the media was replaced with fresh media containing the test materials or vehicle controls. Cells were incubated for 72 hours at which time melanin was visible in the control wells. Next, the melanin containing media from each well was transferred to a clean 96 well plate and quantified by reading the absorbance at 530 nm using a microplate spectrophotometer (Dynatech MR5000) and correcting for the baseline absorption of fresh medium. As the corrected absorption is proportional to the melanin concentration the percentage pigmentation for a skin lightening test substance can be calculated as: % pigmentation = (OD530 test/OD530 ref) x 100% [formula] where OD530 test and OD530 ref indicate the average corrected absorption of the medium from the wells with the test substance and that of the medium from the wells without the test substance. The percentage inhibition caused by the test substance is then 100 - % pigmentation. • * Cell viability assay Melanin production may be reduced by inhibition of melanogenesis but it may also be affected by cytotoxicity or cell proliferation. To test whether this occurred cell viability was tested by neutral red dye absorption. Neutral red is a water soluble dye that passes through the intact plasma membrane and becomes concentrated in the lysosomes in intact cells. Total neutral red dye uptake is proportional to the number of viable cells in culture. Immediately following the removal of medium for melanin analysis from the microtitre wells, 200 µl fresh prewarmed neutral red dye (ex. Sigma, UK, Cat. Nr 2889) at 25 µg/ml medium was applied to the cells and incubated for 3 hours as for cell maintenance. Dye which had not been taken up by the cells was removed by inversion of the plate and tapping on abscrbent paper. The cells were washed with 200 µl PBS, which was then removed again. 100 µl solvent (50% H2O, 49% ethanol, 1% acetic acid) was added. After 20 minutes at ambient temperature each plate was shaken for 5 seconds on a microtitre plate shaker. The absorption was measured as described above.
# PGE2 [3] = test: Keratinocyte PGE2 assay (basal release, enzyme-linked immunoassay); format: cell-based; conditions: 24 hours, unstimulated keratinocytes, n=4, Control 197.9
# Method: This was then replaced with KGM without hydrocortisone for 24-48 hours. No petroselinic acid was added to the control cells. […] At the end of the incubation the medium was harvested and assayed for the basal release of the pro-inflammatory PGE2 by enzyme-linked immuno assay using a commercial PGE2 kit (Amersham, Buckinghamshire, England).
# The anti-inflammatory potential of the test compounds were assessed by the ability of the compounds to reduce the basal levels of secreted PGE2 as compared to the control. Statistical significance was determined using the Student's t-test.
# [4] = test system: B16-F1 mouse melanoma cells; test: Pigmentation assay (melanin in media, absorbance at 530 nm); format: cell-based; conditions: 72 hours, n=4, read-out: Melanin in Media % Control
# Method: as §1
# Keratinocytes [5] = test: Keratinocyte viability by neutral red uptake after the PGE2 assay; format: cell-based; conditions: 24 hours, at the concentrations tested (0.1 and 1 µM)
# Method: (§2) After incubating for 24 hours the medium was removed and the viability determined by the Neutral Red method.
# The cells were then tested for viability by the neutral red up-take method described in example 2 above.
# Keratinocytes [6] = test: Keratinocyte SDS viability assay (Neutral Red method); format: cell-based; conditions: 24 hours, n=8
# Method: as §2
# decorin = test: Immunohistochemical analysis of forearm skin biopsies after topical treatment: decorin expression; format: in vivo, human; conditions: compared with placebo forearm
# From the text: (§3) Two groups of women were recruited with identical or nearly identical degrees of mild to moderate photodamage on each outer forearm. They were supplied with 0.05% retinoic acid in a moisturising base (Retinova®) and also with a colour matched moisturising cream with similar sensory characteristics (Dermacare® lotion), but no active ingredients, as a placebo control. Each participant of the two groups applied the Retinova® to one outer forearm and placebo (Dermacare®) to the other outer forearm. Group 1 applied the products daily to their outer forearms for 14 weeks and the Group 2 applied the products to their outer forearms for 28 weeks. At the end of the studies two full thickness 4mm punch biopsies were taken from the treated areas of each forearm. Immunohistochemical analysis of the biopsy tissue taken from the participants was performed to identify the effect of retinoic acid treatment on the expression of the skin extracellular matrix components, decorin and procollagen-I, as compared with the placebo treated forearms. The following procedure was followed:
# (§4) Antibody dilution buffer for wax sections was composed of Tris Buffered Saline (TBS), 3% bovine serum albumin (BSA), 0.05% Triton X-100 and 0.05% sodium azide. […]
# procollagen-I = test: Immunohistochemical analysis of forearm skin biopsies after topical treatment: procollagen-I expression; format: in vivo, human; conditions: compared with placebo forearm
# From the text: as §3, §4
# [7] = Group 1 after 14 weeks, 16 participants, 0.05% retinoic acid (Retinova®) daily on outer forearm
# [8] = Group 2 after 28 weeks, 15 participants, 0.05% retinoic acid (Retinova®) on outer forearm
smiles,measurement,setting,value
"CCCCCCCCCCCCCC(=O)O[C@@H]1[C@@H](C)[C@@]2(O)[C@@H](C=C(CO)C[C@]3(O)C(=O)C(C)=C[C@@H]23)[C@@H]2C(C)(C)[C@]12OC(C)=O [PMA, phorbal myristate acetate, reference compound]",PGE2,"PGE2 [1]; PMA (10nM) alone, Control 32±6",2371 ± 241 pg/mL
"CCCCCCCCCCC/C=C\CCCCC(=O)O [Petroselinic Acid, Petroselinic acid]",viability at 72 h,[2]; 0.01%,105%
same,viability at 72 h,[2]; 0.013%,105%
same,viability at 72 h,[2]; 0.02%,103%
same,viability at 72 h,[2]; 0.04%,69.9%
same,viability at 72 h,[2]; 0.1%,1%
same,Keratinocyte PGE2 Levels Mean,PGE2 [3]; PA 0.1 µM,150.1 pg/well
same,Keratinocyte PGE2 Levels Mean,PGE2 [3]; PA 1 µM,117.8 pg/well
same,activity at 0.01 %,[4]; 0.01%,79.5%
same,activity at 0.013 %,[4]; 0.013%,40.4%
same,activity at 0.02 %,[4]; 0.02%,55.3%
same,activity at 0.04 %,[4]; 0.04%,3.9%
same,activity at 0.1 %,[4]; 0.1%,19.3%
same,PGE2,PGE2 [1]; PMA (10nM) + PA 0.1uM,500 ± 12 pg/mL
same,PGE2,PGE2 [1]; PMA (10nM) + PA 1uM,486 ± 93 pg/mL
same,PGE2,PGE2 [1]; PMA (10nM) + PA 10uM,233 ± 139 pg/mL
same,PGE2,PGE2 [1]; PMA (10nM) + PA 100uM,117 ± 39 pg/mL
same,Cell viability,Keratinocytes [5],not found to be adversely effected
same,Keratinocyte viability % of control Mean,Keratinocytes [6]; SDS 2 µg/ml + PA 0.1 µM,94.5 % of control
same,Keratinocyte viability % of control Mean,Keratinocytes [6]; SDS 2 µg/ml + PA 1.0 µM,84.1 % of control
same,Keratinocyte viability % of control Mean,Keratinocytes [6]; SDS 2 µg/ml + PA 10 µM,85.8 % of control
"CC1=C(/C=C/C(C)=C/C=C/C(C)=C/C(=O)O)C(C)(C)CCC1 [Retinoic Acid, retinoic acid]",No. of Participants showing marked increase in expression of decorin,decorin; [7],10
same,No. of Participants showing marked increase in expression of decorin,decorin; [8],15
same,No. of Participants showing marked increase in expression of procollagen-I,procollagen-I; [7],9
same,No. of Participants showing marked increase in expression of procollagen-I,procollagen-I; [8],10
"CCCCCCCCCCCCOS(=O)(=O)[O-].[Na+] [SDS, sodium dodecyl sulphate, reference compound]",Keratinocyte viability % of control Mean,Keratinocytes [6]; SDS 2 µg/ml alone (PA 0 µM),55.8 % of control
